According to patent US20250205158A1, “BIODEGRADABLE LIPIDS AND FORMULATIONS FOR DELIVERY OF MRNA” (Massachusetts Institute of Technology, priority 2023, published 2025):
“And” between values parts separate entries of the source, which are not always exact repeats. Identical values can stand only once. Like-named read-outs stand apart in the source and are kept apart here.

Experiments:
[1] = Ethanol solubility of ionizable lipids; type: physicochemical
Excerpt: AMG lipids for enhanced mRNA delivery and improved tolerability.

[2] = test system: mice; conditions: for protein expression relative to MD-1: in vitro and in vivo via intramuscular administration (FIGS. 6A-6B)
Experimental: Evaluation of the LNPs via intramuscular injection. The in vivo potency of the ionizable lipids was screened through intramuscular injection of LNPs loaded with mRNA encoding firefly luciferase protein. These LNPs were formulated with a molar composition of (35:16:46.5:2.5) using one of the synthesized ionizable lipids, DOPE as a helper lipid, cholesterol, and DMPE-PEG respectively. mRNA-loaded LNPs were intramuscularly administered in mice at a dose of 1 μg, and expression of luciferase protein was monitored at 6 hours via IVIS bioluminescent imaging (FIG. 3). […] Without wishing to be bound by theory, increased levels of protein expression may enhance the response to vaccination.
In Vitro and In Vivo Screening of AMG Lipid Library. Following synthesis, the mRNA delivery efficacy of the AMG lipids was evaluated through both in vitro and in vivo screens. To screen the first generation of AMG lipids (FIGS. 11B and 11C), firefly luciferase (FLuc) mRNA was encapsulated into LNPs using a previously reported formulation containing ionizable lipid, 1,2-dioleoyl-sn-glycero-3-phosphoethanolamine (DOPE), cholesterol, and 1,2-dimyristoyl-rac-glycero-3-methoxypolyethylene glycol-2000 (DMG-PEG).^19 C2C12 myoblast cells were treated with these LNPs and FLuc expression was evaluated at 24 hrs. (FIG. 16). […] Each of these batches was then injected IM into the quadriceps of mice, and expression was characterized via IVIS imaging (Screen 1, FIG. 11E).
AMG lipids for enhanced mRNA delivery and improved tolerability. A rational design approach was used to further vary the ionizable lipid structure to enhance the mRNA delivery and immunogenicity. […] The lipid tail structure was varied to promote efficient LNP self-assembly while simultaneously promoting endosomal membrane disruption.^18 Monounsaturated (G41-G44) or fully saturated (GC12-GC18) lipid tails were developed. […] Without wishing to be bound by any particular theory, tail length may impact membrane fusion and endosomal escape.^10,11
Next, the headgroup was further modified to further improve delivery. Headgroups play a multifunctional role including enhancing LNP-mRNA interactions, promoting membrane-LNP fusion and endosomal escape which all contribute to mRNA delivery.^23 A series of similar aza-crown ethers were used to further investigate structure-activity relationship and enhance mRNA delivery. These headgroups featured between three and eight nitrogens linked by varying length of methylene chains. Each of these headgroups were reacted with tail G41 to synthesize a next generation of AMG lipids, which were then formulated with FLuc mRNA and evaluated for mRNA delivery following IM administration in mice (FIG. 12B).

[3] = test system: BALB/c mice; conditions: spike mRNA LNPs on day 0 and day 21, serum day 35
Experimental: Briefly, 6-8 week old BALB/c mice were vaccinated with 1 g of mRNA LNPs on day 0 and on day 21, and serum was collected on day 35 to characterize the antibody response to vaccination.
Immunization studies. […] All LNPs were injected IM in the quadricep with an injection volume of 50 μL with the doses specified in the main text. All vaccination experiments followed a prime-boost dosing regimen with doses given on day 0 and day 21. On day 35, mice were sacrificed, and blood was collected via cardiac puncture and their spleens were collected for further characterization.
Binding antibody ELISAs. […] Plates were coated overnight at 4° C. by adding 100 μL of a 1 μg/mL antigen solution in 100 mM carbonate buffer, pH 9.6 to each well. The coated plates were then washed with ELISA wash buffer (Biolegend) and blocked for 1 hr. at room temperature (RT) with 150 μL of 1% BSA in PBS. The plate was then washed again, and 100 μL of serially diluted serum samples were then added to the plate and incubated at RT for 1 hr. Next, the plate was washed and the secondary goat anti-mouse IgG, HRP antibody (ThermoFisher) was diluted 1:3,000. 100 μL of this solution added to each well an incubated at RT for 1 hr. After incubation, the plate was washed and 100 μL of TMB chromogen solution (ThermoFisher) was added to each well and incubated for 30 mins. Finally, the HRP reaction was stopped by the addition of 100 μL of 0.5 M H2SO4. The absorbance of each well was immediately read at 450 nm with 600 nm as a reference using an Infinite M200 Pro (Tecan) plate reader. The resultant data were then fit with a 4-PL sigmodal curve and the endpoint titers were taken as the point at which this curve crossed four times the absorbance of the blank wells.

[4] = LNP characterization (diameter, PDI, % EE); type: physicochemical; conditions: LNP formulated with the named lipid; for Diameter (nm) / PDI: dynamic light scattering; for EE %: Ribogreen assay
Experimental: Representative LNP Characterization Data. The diameter, polydispersity index (PDI), and % EE were characterized for various LNPs.
LNP characterization. Concentration of mRNA was determined using a Quant-IT Ribogreen assay. LNPs were diluted in either native TE buffer (ThermoFisher) or denaturing TE buffer+0.5% Triton-X 100 (Millipore-Sigma) to measure the “free” and total mRNA, respectively. 100 μL of these unknowns were added to a black 96-well plate. Separately, standard curves ranging from 2 ng/μL-0 ng/μL were prepared in each of these buffers and 100 μL were added to the same 96-well plate. Finally, Quant-IT Ribogreen reagent (ThermoFisher) was diluted 1:200 in TE buffer and 100 μL of this solution was added to each of the wells. The well plate was then mixed at 400 rpm with a plate shaker for 5 mins. and the fluorescence was read with an excitation/emission of 485/535. LNPs were measured in triplicate and standards were measured in duplicate. RNA concentration in each of the unknown wells was calculated by fitting the standard curves with a linear trendline. Encapsulation efficiency (% EE) was calculated according to: […]
Dynamic light scattering and zeta potential measurements were performed using a Malvern Zetasizer system. The reported diameter and PDI were obtained from the cumulants fit of the autocorrelation function. Zeta potential measurements were performed in 0.1×PBS, pH 7.4 and calculated using the Smoluchowski approximation.

[5] = tissue not named
[6] = test system: influenza A/Tasmania/503/2020 virus; assay: Hemagglutination inhibition (HAI) assay, neutralizing antibody titers after HA mRNA vaccination; type: in vivo, BALB/cJ mice; conditions: female BALB/cJ mice, dose-response vaccination
Experimental: To test this, a dose-response vaccination experiment ranging from […] was performed in female BALB/cJ mice. Neutralizing antibody titers were evaluated using the hemagglutination inhibition (HAI) assay. HAI titers are strongly correlated with vaccine protection and the assay is an FDA approved method for testing influenza vaccine efficacy^38,39 In agreement with the binding antibody titers, higher neutralizing […] were measured across all three tested doses: SM-102 only gave detectable neutralizing immunity at a 1 μg dose, while AMG1541 gave neutralizing immunity with as little was 10 ng of mRNA (FIG. 13H). Not only was AMG1541 able to generate neutralizing immunity at a very low dose, the binding and neutralizing antibody titers were equivalent in mice vaccinated with AMG1541 at a […] as those with SM-102 at a […] (FIG. 13H).
HAI Assay. HAI assays were performed by IBT bioservices. Viral titers were standardized by defining one HA unit as the amount of inactivated influenza A/Tasmania/503/2020 virus required to completely hemagglutinate an equal volume of 1% turkey red blood cells (TRBCs) (Lampire). Serum was heat inactivated at 56° C. then receptor destroying enzyme (RDE) (DENKA) was added to the serum and incubated at 37° C. for 20 hrs. RDE was then deactivated at 56° C. for 60 mins. Serum samples were then serially diluted in DPBS and 25 μL of diluted serum was added to a 96-well V bottom plate. Subsequently, four HA units of inactivated virus in 25 μL of DPBS were added to the diluted serum and incubated for 30 mins. at RT. 50 μL of a 1% (4×10^7 cells/mL) solution of turkey red blood cells (Lampire) was then added to the serum and virus mixture.

[7] = in vivo; cited from earlier work

CCCCCCCCCCCCCC(=O)OCC(O)CN1CCCN(CC(O)COC(=O)CCCCCCCCCCCCC)CCN(CC(O)COC(=O)CCCCCCCCCCCCC)CCCN(CC(O)COC(=O)CCCCCCCCCCCCC)CC1 (mixture of isomers) [AMG10C14]
ethanol solubility [1]: poor ethanol solubility

CCCCCCCCCCCCCCCC(=O)OCC(O)CN1CCCN(CC(O)COC(=O)CCCCCCCCCCCCCCC)CCN(CC(O)COC(=O)CCCCCCCCCCCCCCC)CCCN(CC(O)COC(=O)CCCCCCCCCCCCCCC)CC1 (mixture of isomers) [AMG10C16]
ethanol solubility [1]: poor ethanol solubility

CCCCCCCCCCCCCCCCCC(=O)OCC(O)CN1CCCN(CC(O)COC(=O)CCCCCCCCCCCCCCCCC)CCN(CC(O)COC(=O)CCCCCCCCCCCCCCCCC)CCCN(CC(O)COC(=O)CCCCCCCCCCCCCCCCC)CC1 (mixture of isomers) [AMG10C18]
ethanol solubility [1]: poor ethanol solubility

CCCCCC/C=C\CCCC(=O)OCC(O)CN1CCCN(CC(O)COC(=O)CCC/C=C\CCCCCC)CCN(CC(O)COC(=O)CCC/C=C\CCCCCC)CCCN(CC(O)COC(=O)CCC/C=C\CCCCCC)CC1 (centres unmarked) [AMG1041]
fold higher expression than AMG104 ([2]; IM, tail derivatives, 5 μg, 24 hours): ~3 fold
antibody titers after vaccination [3]: high levels of antibody titers
Diameter (nm) [4]: 81.79 nm
PDI [4]: 0.113
[AMG1041] ng/g tissue ([5]; Time 0 hrs): 0 ng/g tissue
[AMG1041] ng/g tissue ([5]; Time 1 hrs): 32200 ng/g tissue and 24800 ng/g tissue and 28000 ng/g tissue
[AMG1041] ng/g tissue ([5]; Time 2 hrs): 14000 ng/g tissue and 23400 ng/g tissue and 20400 ng/g tissue
[AMG1041] ng/g tissue ([5]; Time 4 hrs): 17200 ng/g tissue and 12600 ng/g tissue and 9400 ng/g tissue
[AMG1041] ng/g tissue ([5]; Time 8 hrs): 4800 ng/g tissue and 8000 ng/g tissue
[AMG1041] ng/g tissue ([5]; Time 24 hrs): 600 ng/g tissue

CC/C=C\C/C=C\CCCCC(=O)OCC(O)CN1CCN(CC(O)COC(=O)CCCC/C=C\C/C=C\CC)CCN(CC(O)COC(=O)CCCC/C=C\C/C=C\CC)CCN(CC(O)COC(=O)CCCC/C=C\C/C=C\CC)CCN(CC(O)COC(=O)CCCC/C=C\C/C=C\CC)CCN(CC(O)COC(=O)CCCC/C=C\C/C=C\CC)CC1 (centres unmarked) [AMG1555]
protein expression relative to MD-1 [2]: superseded or matched MD-1
EE % [4]: 88.37%
Diameter (nm) [4]: 83 nm
PDI [4]: 0.077

C/C=C\C/C=C\CCCCCC(=O)OCC(O)CN1CCN(CC(O)COC(=O)CCCCC/C=C\C/C=C\C)CCN(CC(O)COC(=O)CCCCC/C=C\C/C=C\C)CCN(CC(O)COC(=O)CCCCC/C=C\C/C=C\C)CCN(CC(O)COC(=O)CCCCC/C=C\C/C=C\C)CCN(CC(O)COC(=O)CCCCC/C=C\C/C=C\C)CC1 (centres unmarked) [AMG1556]
protein expression relative to MD-1 [2]: superseded or matched MD-1
EE % [4]: 85.76%
Diameter (nm) [4]: 96 nm
PDI [4]: 0.121

CCCCCC/C=C\CCCC(=O)OCC(O)CN1CCN(CC(O)COC(=O)CCC/C=C\CCCCCC)CCN(CC(O)COC(=O)CCC/C=C\CCCCCC)CCN(CC(O)COC(=O)CCC/C=C\CCCCCC)CCN(CC(O)COC(=O)CCC/C=C\CCCCCC)CCN(CC(O)COC(=O)CCC/C=C\CCCCCC)CCN(CC(O)COC(=O)CCC/C=C\CCCCCC)CC1 (centres unmarked) [AMG1741]
antibody titers after vaccination [3]: high levels of antibody titers
EE % [4]: 82.99%
Diameter (nm) [4]: 88 nm
PDI [4]: 0.156

CCCCCCCCCCCOC(=O)CCCCCN(CCO)CCCCCCCC(=O)OC(CCCCCCCC)CCCCCCCC [SM-102, reference compound]
fold higher mRNA transfection in the liver and spleen compared to AMG1541 ([2]; FLuc expression in liver and spleen 6 hours after IM injection): ~100 fold
dose giving detectable neutralizing immunity [6]: 1 µg
time SM-102 remained detectable at the injection site [7]: at least 48 hours
time SM-102 remained detectable in the liver and spleen [7]: at least 10 hours
